Results taken from US20230127326A1, “C3-SUBSTITUTED 1H-PYRAZOLO[4,3-d]PYRIMIDINE COMPOUNDS AS TOLL-LIKE RECEPTOR 7 (TLR7) AGONISTS” (BRISTOL-MYERS SQUIBB COMPANY, priority 2020, published 2023).

Legend:
CD69 = assay: Induction of CD69 in human whole blood; type: cell-based; details: 17 hrs at 37° C., y-axis 100% set to 1 uM of resiquimod, average where assay was performed multiple times, read-out: hWB CD69 EC50
Description: The induction of Type I interferon (IFN) MX-1 genes and the B-cell activation marker CD69 are downstream events that occur upon activation of the TLR7 pathway. The following is a human whole blood assay that measures their induction in response to a TLR7 agonist.
Heparinized human whole blood was harvested from human subjects and treated with test TLR7 agonist compounds at 1 mM. The blood was diluted with RPMI 1640 media and Echo was used to predot 10 nL per well giving a final concentration of 1 uM (10 nL in 10 uL of blood). After mixing on a shaker for 30 sec, the plates were covered and placed in a 37° C. chamber for o/n=17 hrs. Fixing/lysis buffer was prepared (5×->1× in H2O, warm at 37° C.; Cat #BD 558049) and kept the perm buffer (on ice) for later use.
For surface markers staining (CD69): prepared surface Abs: 0.045 ul hCD14-FITC (ThermoFisher Cat #MHCD1401)+0.6 ul hCD19-ef450 (ThermoFisher Cat #48-0198-42)+1.5 ul hCD69-PE (cat #BD555531)+0.855 ul FACS buffer. Added 3 ul/well, spin 1000 rpm for 1 min and mixed on shaker for 30 sec, put on ice for 30 mins. Stop stimulation after 30 minutes with 70 uL of prewarmed 1× fix/lysis buffer and use Feliex mate to resuspend (15 times, change tips for each plate) and incubate at 37 C for 10 minutes.
Centrifuge at 2000 rpm for 5 minutes aspirate with HCS plate washer, mix on shaker for 30 sec and then wash with 70 uL in dPBS and pelleted 2×s (2000 rpm for 5 min) and 50 ul wash in FACS buffer pelleted 1×s (2000 rpm for 5 min). Mix on shaker for 30 sec. For Intracellular markers staining (MX-1): Add 50 ul of BD Perm buffer III and mix on shaker for 30 sec. Incubate on ice for 30 minutes (in the dark). Wash with 50 uL of FACS buffer 2× (spin @2300 rpm×5 min after perm) followed by mixing on shaker for 30 sec. Resuspended in 20 ul of FACS buffer containing MX1 antibody ( )(4812)-Alexa 647: Novus Biologicals #NBP2-43704AF647) 20 ul FACS bf+0.8 ul hIgG+0.04 ul MX-1. Spin 1000 rpm for 1 min, mix on shaker for 30 se and the samples were incubated at RT in the dark for 45 minutes followed by washing 2×FACS buffer (spin @2300 rpm×5 min after perm). Resuspend 20 ul (35 uL total per well) of FACS buffer and cover with foil and place in 4° C. to read the following day. Plates were read on iQuePlus. The results were loaded into toolset and […] curves are generated in curve master. The y-axis 100% is set to 1 uM of resiquimod.

human TLR7 = target: T1, human TLR7 (Homo sapiens, UniProt Q9NYK1); assay: Human TLR7 agonist activity reporter assay (HEK-Blue TLR7 cells, SEAP reporter); type: cell-based; details: 18 h treatment, average where assay was performed multiple times, read-out: hTLR7 Agonism EC50
T1 construct: host or cells: HEK-Blue TLR7 cells (engineered human embryonic kidney cells)
T1 sequence (Q9NYK1 27-1049): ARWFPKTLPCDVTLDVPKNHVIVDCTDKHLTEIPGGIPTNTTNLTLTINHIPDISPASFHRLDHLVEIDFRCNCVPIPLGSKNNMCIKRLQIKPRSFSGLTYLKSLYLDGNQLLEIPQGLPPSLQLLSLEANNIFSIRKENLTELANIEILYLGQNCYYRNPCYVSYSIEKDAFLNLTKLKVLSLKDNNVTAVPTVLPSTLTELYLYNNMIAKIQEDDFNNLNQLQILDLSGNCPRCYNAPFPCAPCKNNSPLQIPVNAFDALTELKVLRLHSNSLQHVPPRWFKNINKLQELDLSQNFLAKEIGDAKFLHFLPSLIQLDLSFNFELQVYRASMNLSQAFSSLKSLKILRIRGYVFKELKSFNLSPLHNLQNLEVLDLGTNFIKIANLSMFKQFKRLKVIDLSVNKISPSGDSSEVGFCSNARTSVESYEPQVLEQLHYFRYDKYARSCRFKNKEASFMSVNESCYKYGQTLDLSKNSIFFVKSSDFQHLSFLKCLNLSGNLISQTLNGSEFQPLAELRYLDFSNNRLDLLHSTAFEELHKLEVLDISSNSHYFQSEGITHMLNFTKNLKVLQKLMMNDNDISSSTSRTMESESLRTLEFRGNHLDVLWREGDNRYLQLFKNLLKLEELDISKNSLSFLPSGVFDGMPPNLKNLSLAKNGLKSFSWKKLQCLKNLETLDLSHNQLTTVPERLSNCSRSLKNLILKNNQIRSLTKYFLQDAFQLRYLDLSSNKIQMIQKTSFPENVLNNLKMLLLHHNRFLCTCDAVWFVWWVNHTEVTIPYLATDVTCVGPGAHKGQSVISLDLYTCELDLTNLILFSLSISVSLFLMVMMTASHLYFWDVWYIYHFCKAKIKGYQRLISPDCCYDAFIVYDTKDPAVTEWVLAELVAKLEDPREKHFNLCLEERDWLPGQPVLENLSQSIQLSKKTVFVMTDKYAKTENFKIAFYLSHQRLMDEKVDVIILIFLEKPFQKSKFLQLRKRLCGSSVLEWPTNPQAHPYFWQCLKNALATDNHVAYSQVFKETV
Description: This procedure describes a method for assaying human TLR7 (hTLR7) agonist activity of the compounds disclosed in this specification.
HEK-Blue™ TLR7 cells were added to each well of a 384-well tissue-culture plate (15,000 cells per well) and incubated 16-18 h at 37° C., 5% CO2. Compounds (100 nl) were dispensed into wells containing the HEK-Blue™ TLR cells and the treated cells were incubated at 37° C., 5% CO2. After 18 h treatment ten microliters of freshly-prepared Quanti-Blue™ reagent (Invivogen) was added to each well, incubated for 30 min (37° C., 5% CO2) and SEAP levels measured using an Envision plate reader (OD=620 nm). The half maximal effective concentration values (EC50; compound concentration which induced a response halfway between the assay baseline and maximum) were calculated.

| SMILES | EC50 (CD69) [nM] | EC50 (human TLR7) [nM] |
| --- | --- | --- |
| CCC[C@@H](CCO)Nc1nc(N)nc2c(C)nn(Cc3ccc(CO)cc3OC)c12 [Compound 126, (3S)-3-[(5-amino-1-{[4-(hydroxymethyl)-2-methoxyphenyl]methyl}-3-methyl-1H-pyrazolo[4,3-d]pyrimidin-7-yl)amino]hexan-1-ol] | 90.2 | 63.4 |
| CCC[C@@H](CCO)Nc1nc(N)nc2c(C)nn(Cc3ccc(CN4CCN(C)CC4)cc3OC)c12 [Compound 129, (3S)-3-{[5-amino-1-({2-methoxy-4-[(4-methyl-piperazin-1-yl)methyl]-phenyl}methyl)-3-methyl-1H-pyrazolo[4,3-d]pyrimidin-7-yl]amino}hexan-1-ol] | 3.5 | 5.93 |
